What was measured:
Test in all cases: Test D controlled growth environment herbicide test, pre- and postemergence
Assay type in all cases: in vivo
[1] = system: barley, spring (spring barley, Hordeum vulgare)
How it was run: (§1)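 Pre-emergence: seeds sown in silt loam soil were sprayed with compound in a non-phytotoxic solvent mix containing surfactant. Post-emergence: plants at 2 to 18 cm (1- to 4-leaf stage) in peat moss/vermiculite medium got the same formulation. Visual 0–100 rating versus controls after 14 to 21 d.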

[2] = system: blackgrass (Alopecurus myosuroides)
How it was run: as §1

[3] = system: bluegrass (annual bluegrass, Poa annua)
How it was run: as §1

[4] = system: buckwheat, wild (wild buckwheat, Polygonum convolvulus)
How it was run: as §1

[5] = system: canarygrass (Phalaris minor)
How it was run: as §1

[6] = system: chamomile (scentless chamomile, Matricaria inodora)
How it was run: as §1

[7] = system: field violet (Viola arvensis)
How it was run: as §1

[8] = system: foxtail, green (green foxtail, Setaria viridis)
How it was run: as §1

[9] = system: oat, wild (wild oat, Avena fatua)
How it was run: as §1

[10] = system: pigweed (Amaranthus retroflexus)
How it was run: as §1

[11] = system: radish, wild (wild radish, Raphanus raphanistrum)
How it was run: as §1

[12] = system: ryegrass, Italian (Italian ryegrass, Lolium multiflorum)
How it was run: as §1

[13] = system: wheat, spring (spring wheat, Triticum aestivum)
How it was run: as §1

[14] = Postemergence, 31 g ai/ha, scale 0 to 100 (0 no effect, 100 complete control)
[15] = Postemergence, 125 g ai/ha, visual rating on scale 0 (no effect) to 100 (complete control), 14 to 21 d
[16] = Postemergence, 250 g ai/ha, scale 0 to 100 (0 no effect, 100 complete control)
[17] = Preemergence, 62 g ai/ha, scale 0 to 100 (0 no effect, 100 complete control)
[18] = Preemergence, 125 g ai/ha, scale 0 to 100 (0 no effect, 100 complete control)
[19] = Preemergence, 250 g ai/ha, scale 0 to 100 (0 no effect, 100 complete control)
[20] = postemergence, 62 g ai/ha, scale 0 to 100, 0 no effect, 100 complete control

Cc1ccc2ccc(C)c(-c3c(O)c(C)nn(C)c3=O)c2c1 [Compound 60]
Barley, Spring plant response rating [1, 14]: 15 | Plant response rating, Barley, Spring [1, 15]: 40 | Plant response rating, Barley, Spring [1, 16]: 50 | Plant response rating (scale of 0 to 100), Barley, Spring ([1]; Preemergence, 31 g ai/ha): 5 | Plant response rating, Barley, Spring [1, 17]: 10 | Plant response rating, Barley, Spring [1, 18]: 45 | Plant response rating, Barley, Spring [1, 19]: 60 | Plant response rating, Barley, Spring [1, 20]: 25 | Blackgrass plant response rating [2, 14]: 75 | Plant response rating, Blackgrass [2, 15]: 85 | Plant response rating, Blackgrass [2, 16]: 90 | Plant response rating (scale of 0 to 100), Blackgrass ([2]; Preemergence, 31 g ai/ha): 90 | Plant response rating, Blackgrass [2, 17]: 95 | Plant response rating, Blackgrass [2, 18]: 100 | Plant response rating, Blackgrass [2, 19]: 100 | Plant response rating, Blackgrass [2, 20]: 80 | Bluegrass plant response rating [3, 14]: 15 | Plant response rating, Bluegrass [3, 15]: 35 | Plant response rating, Bluegrass [3, 16]: 60 | Plant response rating (scale of 0 to 100), Bluegrass ([3]; Preemergence, 31 g ai/ha): 35 | Plant response rating, Bluegrass [3, 17]: 45 | Plant response rating, Bluegrass [3, 18]: 65 | Plant response rating, Bluegrass [3, 19]: 80 | Plant response rating, Bluegrass [3, 20]: 25 | Buckwheat, Wild plant response rating [4, 14]: 90 | Plant response rating, Buckwheat, Wild [4, 15]: 100 | Plant response rating, Buckwheat, Wild [4, 16]: 100 | Plant response rating (scale of 0 to 100), Buckwheat, Wild ([4]; Preemergence, 31 g ai/ha): 0 | Plant response rating, Buckwheat, Wild [4, 17]: 25 | Plant response rating, Buckwheat, Wild [4, 18]: 50 | Plant response rating, Buckwheat, Wild [4, 19]: 60 | Plant response rating, Buckwheat, Wild [4, 20]: 95 | Canarygrass plant response rating [5, 14]: 80 | Plant response rating, Canarygrass [5, 15]: 85 | Plant response rating, Canarygrass [5, 16]: 90 | Plant response rating (scale of 0 to 100), Canarygrass ([5]; Preemergence, 31 g ai/ha): 90 | Plant response rating, Canarygrass [5, 17]: 95 | Plant response rating, Canarygrass [5, 18]: 95 | Plant response rating, Canarygrass [5, 19]: 100 | Plant response rating, Canarygrass [5, 20]: 80 | Chamomile plant response rating [6, 14]: 75 | Plant response rating, Chamomile [6, 15]: 100 | Plant response rating, Chamomile [6, 16]: 100 | Plant response rating (scale of 0 to 100), Chamomile ([6]; Preemergence, 31 g ai/ha): 95 | Plant response rating, Chamomile [6, 17]: 100 | Plant response rating, Chamomile [6, 18]: 100 | Plant response rating, Chamomile [6, 19]: 100 | Plant response rating, Chamomile [6, 20]: 80 | Field Violet plant response rating [7, 14]: 80 | Plant response rating, Field Violet [7, 15]: 100 | Plant response rating, Field Violet [7, 16]: 85 | Plant response rating (scale of 0 to 100), Field Violet ([7]; Preemergence, 31 g ai/ha): 95 | Plant response rating, Field Violet [7, 17]: 100 | Plant response rating, Field Violet [7, 18]: 100 | Plant response rating, Field Violet [7, 19]: 100 | Plant response rating, Field Violet [7, 20]: 95 | Foxtail, Green plant response rating [8, 14]: 35 | Plant response rating, Foxtail, Green [8, 15]: 65 | Plant response rating, Foxtail, Green [8, 16]: 75 | Plant response rating (scale of 0 to 100), Foxtail, Green ([8]; Preemergence, 31 g ai/ha): 70 | Plant response rating, Foxtail, Green [8, 17]: 80 | Plant response rating, Foxtail, Green [8, 18]: 95 | Plant response rating, Foxtail, Green [8, 19]: 100 | Plant response rating, Foxtail, Green [8, 20]: 40 | Oat, Wild plant response rating [9, 14]: 85 | Plant response rating, Oat, Wild [9, 15]: 95 | Plant response rating, Oat, Wild [9, 16]: 100 | Plant response rating (scale of 0 to 100), Oat, Wild ([9]; Preemergence, 31 g ai/ha): 90 | Plant response rating, Oat, Wild [9, 17]: 95 | Plant response rating, Oat, Wild [9, 18]: 100 | Plant response rating, Oat, Wild [9, 19]: 100 | Plant response rating, Oat, Wild [9, 20]: 90 | Pigweed plant response rating [10, 14]: 75 | Plant response rating, Pigweed [10, 15]: 100 | Plant response rating, Pigweed [10, 16]: 100 | Plant response rating (scale of 0 to 100), Pigweed ([10]; Preemergence, 31 g ai/ha): 100 | Plant response rating, Pigweed [10, 17]: 100 | Plant response rating, Pigweed [10, 18]: 100 | Plant response rating, Pigweed [10, 19]: 100 | Plant response rating, Pigweed [10, 20]: 95 | Radish, Wild plant response rating [11, 14]: 65 | Plant response rating, Radish, Wild [11, 15]: 95 | Plant response rating, Radish, Wild [11, 16]: 95 | Plant response rating (scale of 0 to 100), Radish, Wild ([11]; Preemergence, 31 g ai/ha): 55 | Plant response rating, Radish, Wild [11, 17]: 90 | Plant response rating, Radish, Wild [11, 18]: 95 | Plant response rating, Radish, Wild [11, 19]: 90 | Plant response rating, Radish, Wild [11, 20]: 75 | Ryegrass, Italian plant response rating [12, 14]: 80 | Plant response rating, Ryegrass, Italian [12, 15]: 90 | Plant response rating, Ryegrass, Italian [12, 16]: 95 | Plant response rating (scale of 0 to 100), Ryegrass, Italian ([12]; Preemergence, 31 g ai/ha): 100 | Plant response rating, Ryegrass, Italian [12, 17]: 100 | Plant response rating, Ryegrass, Italian [12, 18]: 100 | Plant response rating, Ryegrass, Italian [12, 19]: 100 | Plant response rating, Ryegrass, Italian [12, 20]: 90 | Wheat, Spring plant response rating [13, 14]: 30 | Plant response rating, Wheat, Spring [13, 15]: 40 | Plant response rating, Wheat, Spring [13, 16]: 55 | Plant response rating (scale of 0 to 100), Wheat, Spring ([13]; Preemergence, 31 g ai/ha): 35 | Plant response rating, Wheat, Spring [13, 17]: 55 | Plant response rating, Wheat, Spring [13, 18]: 65 | Plant response rating, Wheat, Spring [13, 19]: 75 | Plant response rating, Wheat, Spring [13, 20]: 35

— patent US10597388B2, “Pyridazinone herbicides” (FMC CORPORATION, priority 2014, dated 2020)
